# Source: patent publication US8017611B2, “Pyridine and pyrazine derivatives -083” (AstraZeneca AB, priority 2007, dated 2011)
# Read-outs that look alike come from different tables or passages of the source.
# Experiments:
# [1] = target: T1, Axl expressed on NCI H1299 lung large cell carcinoma cells (Homo sapiens, UniProt P30530); test: Cellular phospho-Axl ELISA assay, Test (b); settings: Test (b)
# T1 sequence (P30530 26-894): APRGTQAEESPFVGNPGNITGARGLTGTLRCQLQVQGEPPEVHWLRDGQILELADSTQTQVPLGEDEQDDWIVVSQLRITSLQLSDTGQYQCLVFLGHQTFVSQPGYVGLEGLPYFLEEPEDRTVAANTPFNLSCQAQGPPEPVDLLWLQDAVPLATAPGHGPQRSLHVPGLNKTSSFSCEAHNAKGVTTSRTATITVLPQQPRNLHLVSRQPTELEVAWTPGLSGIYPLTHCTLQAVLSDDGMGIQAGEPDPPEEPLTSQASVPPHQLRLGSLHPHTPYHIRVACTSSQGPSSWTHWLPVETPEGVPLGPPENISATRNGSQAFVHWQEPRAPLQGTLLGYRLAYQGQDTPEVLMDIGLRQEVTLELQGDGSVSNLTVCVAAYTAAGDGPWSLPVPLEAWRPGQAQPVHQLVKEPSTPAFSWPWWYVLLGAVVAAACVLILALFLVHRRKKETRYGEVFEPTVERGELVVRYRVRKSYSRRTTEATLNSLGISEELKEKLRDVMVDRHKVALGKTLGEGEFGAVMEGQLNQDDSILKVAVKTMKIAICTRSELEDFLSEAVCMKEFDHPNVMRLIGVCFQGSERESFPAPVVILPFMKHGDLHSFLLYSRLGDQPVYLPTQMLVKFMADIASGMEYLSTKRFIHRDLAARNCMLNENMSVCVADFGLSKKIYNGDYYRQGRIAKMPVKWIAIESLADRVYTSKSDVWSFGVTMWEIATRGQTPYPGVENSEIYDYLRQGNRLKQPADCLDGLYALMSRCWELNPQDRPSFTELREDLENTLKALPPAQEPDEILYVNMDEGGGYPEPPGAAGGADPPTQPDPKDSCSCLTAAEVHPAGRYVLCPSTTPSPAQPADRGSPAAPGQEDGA
# Method: This assay uses a conventional ELISA method to determine the ability of test compounds to inhibit phosphorylation of tyrosine residues in Axl.
# 100 μl Aliquots were seeded into each of the wells of a clear 96 well tissue culture plate and the plates were incubated overnight at 37° C. with 5% CO2 to allow the cells to adhere to the wells.
# Aliquots of each compound concentration were added to the cells in each well using the Echo 550 (Labcyte Inc., Sunnyvale, Calif., US). Control cells received DMSO only. The cells were incubated for 2 hours at 37° C. with 5% CO2.
# The resultant tissue culture plates were incubated on ice for 30 minutes to ensure full lysis.
# The wells were washed 3 times with 250 μl per well of PBS containing 0.05% v/v Tween (PBS/T). The wells were treated with 3% w/v BSA in PBS at ambient temperature for 2 hours and subsequently washed 3 times with 250 μl per well of PBS/T.
# 50 μl Aliquots of the NCI H1299 cell lysates were added to the ELISA plates.
# 100 μl Aliquots of substrate solution were added to each of the wells and fluorescence was read on a Tecan Ultra plate reader (Tecan UK Ltd., Reading, Berkshire, UK).
# [2] = target: T2, recombinant Axl tyrosine kinase (Homo sapiens, UniProt P30530); test: In vitro Axl kinase assay (AlphaScreen), Test (a); assay type: biochemical
# T2 construct: encompassing amino acids 473 to 894 of Axl; GST (N); made in house; host or cells: SF126 insect cells
# T2 sequence (P30530 473-894): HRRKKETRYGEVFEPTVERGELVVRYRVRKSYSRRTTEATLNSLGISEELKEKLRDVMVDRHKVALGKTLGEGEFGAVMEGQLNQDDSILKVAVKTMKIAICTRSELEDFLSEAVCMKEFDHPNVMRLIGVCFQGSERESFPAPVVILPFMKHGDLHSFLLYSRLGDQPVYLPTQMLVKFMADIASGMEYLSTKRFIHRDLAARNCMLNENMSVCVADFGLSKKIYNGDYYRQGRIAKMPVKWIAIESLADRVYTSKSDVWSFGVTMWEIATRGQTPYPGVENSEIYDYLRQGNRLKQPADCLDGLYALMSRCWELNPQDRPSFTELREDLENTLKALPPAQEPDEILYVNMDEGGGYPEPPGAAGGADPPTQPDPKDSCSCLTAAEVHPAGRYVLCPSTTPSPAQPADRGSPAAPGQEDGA
# [3] = target: T3, cMet expressed on MKN45 cells (Homo sapiens, UniProt P08581); test: Cellular c-Met inhibition assay, Test (d); assay type: cell-based
# T3 construct: endogenous in cells; host or cells: MKN45
# Excerpt: These and other assays can be used to indicate the ability of a test compound to inhibit c-Met mediated cellular signalling in mammalian cell lines, for example the human tumour cell line MKN45. This is achieved by measuring the amount of phosphorylated c-Met within a cell following compound treatment.
# MKN45 cells were routinely passaged in DMEM (Gibco BRL, product number 41966-029) plus 10% foetal calf serum (FCS), 1% L-glutamine (Gibco BRL, product number 25030024), to a confluence not greater than 85%. To undertake the assay, MKN45 cells were seeded at 2×10^4 cells/well in DMEM plus 0.5% foetal calf serum, 1% L-glutamine in 96 well plates (Costar, product number 3904) and incubated at 37° C. (+5% CO2) in a humidified incubator. Once the cells had fully adhered (typically following overnight incubation) plates were dosed with 25 μl compound (diluted from 10 mM stock in DMSO using serum free DMEM) and the plates were returned to a humidified 37° C. (+5% CO2) incubator for one hour. Following incubation the cells were fixed by adding formaldehyde (4% final concentration) and incubating at room temperature for 20 minutes. […] The plates were read using an Arrayscan II (Cellomics). […]
# T3 sequence (P08581 25-1390): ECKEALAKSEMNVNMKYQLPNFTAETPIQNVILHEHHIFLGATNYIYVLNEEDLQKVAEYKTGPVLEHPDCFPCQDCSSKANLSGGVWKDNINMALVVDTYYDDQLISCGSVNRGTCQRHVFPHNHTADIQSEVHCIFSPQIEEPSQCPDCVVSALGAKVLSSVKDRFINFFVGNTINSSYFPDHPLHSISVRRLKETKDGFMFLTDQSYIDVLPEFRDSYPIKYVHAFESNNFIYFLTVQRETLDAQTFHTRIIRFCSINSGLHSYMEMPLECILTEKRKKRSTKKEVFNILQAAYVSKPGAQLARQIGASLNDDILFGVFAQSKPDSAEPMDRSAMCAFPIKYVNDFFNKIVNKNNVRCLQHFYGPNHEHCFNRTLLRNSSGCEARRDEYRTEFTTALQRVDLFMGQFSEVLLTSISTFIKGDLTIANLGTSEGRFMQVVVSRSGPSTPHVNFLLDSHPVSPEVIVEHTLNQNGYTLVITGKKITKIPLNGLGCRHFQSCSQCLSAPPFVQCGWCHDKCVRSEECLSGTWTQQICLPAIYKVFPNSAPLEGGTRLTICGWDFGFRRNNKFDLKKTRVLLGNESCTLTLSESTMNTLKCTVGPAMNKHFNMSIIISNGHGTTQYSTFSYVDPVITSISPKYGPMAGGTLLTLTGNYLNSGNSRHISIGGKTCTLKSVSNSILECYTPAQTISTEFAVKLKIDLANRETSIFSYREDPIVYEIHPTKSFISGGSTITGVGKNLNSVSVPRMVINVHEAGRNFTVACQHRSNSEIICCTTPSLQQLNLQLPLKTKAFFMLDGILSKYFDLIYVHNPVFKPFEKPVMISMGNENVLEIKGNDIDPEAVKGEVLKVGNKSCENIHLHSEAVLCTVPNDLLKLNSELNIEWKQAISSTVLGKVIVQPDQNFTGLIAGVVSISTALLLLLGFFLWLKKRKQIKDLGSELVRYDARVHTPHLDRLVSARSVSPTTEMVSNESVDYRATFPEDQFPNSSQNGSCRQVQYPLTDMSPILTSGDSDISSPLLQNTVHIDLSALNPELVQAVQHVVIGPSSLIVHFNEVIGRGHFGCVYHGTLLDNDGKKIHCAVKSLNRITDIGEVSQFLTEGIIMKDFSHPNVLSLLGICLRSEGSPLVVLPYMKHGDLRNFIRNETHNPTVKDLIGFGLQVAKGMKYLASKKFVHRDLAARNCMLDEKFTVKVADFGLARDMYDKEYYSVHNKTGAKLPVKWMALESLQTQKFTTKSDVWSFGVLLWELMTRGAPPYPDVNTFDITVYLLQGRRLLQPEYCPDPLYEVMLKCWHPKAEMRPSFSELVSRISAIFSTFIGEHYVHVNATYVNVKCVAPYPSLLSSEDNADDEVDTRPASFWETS
compound,measurement,setting,value
CN1CCC(n2cc(-c3cnc(N)c(-c4nc5ccc(F)cc5o4)c3)cn2)CC1 [Example 7.2],IC50,"[1]; read-out: IC50 versus cellular phospho-Axl, mean recalculated from a larger number of replicates, later recalculated",0.111 µM
same,IC50,"[1]; read-out: IC50 versus cellular phospho-Axl, NCI H1299 cells stimulated with GAS6",~0.039 µM
same,IC50,"[2]; Test (a), read-out: IC50 versus Axl tyrosine kinase",~0.024 µM
same,% Axl tyrosine kinase inhibition at 1 μM concentration,"[2]; test compound at 1 μM, first value quoted",96.6%
same,IC50,"[3]; MKN45 cells, read-out: IC50 versus cellular phospho-c-Met (pYpYpY1230/4/5)",~0.59 µM
same,IC50,"[3]; later recalculated, read-out: IC50 versus cellular phospho-c-Met (pYpYpY1230/4/5), mean recalculated from a larger number of replicates",0.95 µM
